In experiment [1] the target is T1, VIPR2 (Homo sapiens, UniProt P41587).
T1 sequence (P41587 24-438): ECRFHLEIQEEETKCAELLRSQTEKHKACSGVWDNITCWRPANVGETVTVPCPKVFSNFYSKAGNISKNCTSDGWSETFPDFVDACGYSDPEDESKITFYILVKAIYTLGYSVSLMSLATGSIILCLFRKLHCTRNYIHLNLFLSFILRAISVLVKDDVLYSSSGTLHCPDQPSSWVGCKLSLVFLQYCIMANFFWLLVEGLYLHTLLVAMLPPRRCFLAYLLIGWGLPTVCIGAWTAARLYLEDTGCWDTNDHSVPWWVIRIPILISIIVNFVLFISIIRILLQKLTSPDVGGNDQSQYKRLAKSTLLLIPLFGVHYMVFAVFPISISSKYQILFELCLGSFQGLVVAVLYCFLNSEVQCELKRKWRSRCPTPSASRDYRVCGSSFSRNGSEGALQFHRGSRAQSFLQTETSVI
In words: % Activity: inhibition of VIP-induced cAMP elevation and β-arrestin recruitment (Table 2). More on the design: expressed in transfected cells; host or cells: HEK293 cells transfected with VIPR2 in pCDNA3.1 (as described). The experiment is classed as cell-based. The method in brief:
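Recruitment of β-arrestin measured by β-gal fragment complementation luminescence in HEK293 cells co-expressing VIPR2-ProLink and β-arrestin2-EA after 2 h compound at 37° C. VIP-driven cAMP rise in stable hVIPR2 HEK293 cells measured by HTRF after 30 min with inhibitor and VIP.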

Experiment [2] concerns the target T1, VIPR2. In words: Inhibition of VIP-induced β-arrestin recruitment (% Activity Arrestin). The class given is cell-based. Also on record: expressed in transfected cells; host or cells: HEK293 cells transfected with VIPR2 in pCDNA3.1 (as described). As to conditions: Batch 1. The method in brief:
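Read-out is β-gal fragment complementation (luminescence) between ProLink-hVIPR2 and EA-β-arrestin2 in transiently transfected HEK293 cells. Cells rested overnight, then exposed to inhibitor 2 h at 37 °C before detection reagent (5 min–1 h, room temperature); values are % activity against VIP-driven recruitment.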
A general note: Arrestin recruitment assays detect the binding of arrestin to an activated receptor.

The term inhibition denotes the change of the read-out against control, counted positive when it falls. A high value points to strong suppression. `N#Cc1ccc(S(=O)(=O)NC[C@@H](O)C[C@@H](Cc2ccccc2)C(=O)N[C@H]2c3ccccc3C[C@H]2O)cc1` [C]: the “% Activity” value on VIPR2 [1] stood at 91.75%. Also, at VIPR2 [2], the inhibition at 0.5 µM was 38.5%, at 1 µM the inhibition was 59.5% and the inhibition at 5 µM worked out at 90.4%.

As for `CC(C)c1ccc(S(=O)(=O)NC[C@@H](O)C[C@@H](Cc2ccccc2)C(=O)N[C@H]2c3ccccc3C[C@H]2O)cc1` [Compound A10], the “% Activity” value at VIPR2 [1] turned out to be 92.95%. At VIPR2 [2], this compound returned an inhibition at 0.5 µM of 31.5%, an inhibition at 1 µM of 63.1% and an inhibition at 5 µM of 87.7%.

For `COc1ccc(S(=O)(=O)NC[C@@H](O)C[C@@H](Cc2ccccc2)C(=O)N[C@H]2c3ccccc3C[C@H]2O)cc1` [E], at VIPR2 [1], the “% Activity” value was determined as 91.6%. Further, at VIPR2 [2], 0.5 µM produced 54.1% inhibition, 1 µM produced 76.7% inhibition and the inhibition at 5 µM was found to be 89.4%.

For `O=C(N[C@H]1c2ccccc2C[C@H]1O)[C@H](Cc1ccccc1)C[C@H](O)CNS(=O)(=O)c1ccc(C(F)(F)F)cc1` [F], at VIPR2 [1], the “% Activity” value is recorded as 95.7%. On VIPR2 [2], this compound returned an inhibition at 0.5 µM of 58.1%, an inhibition at 1 µM of 83% and an inhibition at 5 µM of 92.9%.

For the compound `Cc1ccc(S(=O)(=O)NC[C@@H](O)C[C@@H](Cc2ccccc2)C(=O)N[C@H]2c3ccccc3C[C@H]2O)cc1` [I], the “% Activity” value on VIPR2 [1] was 94.1%. On VIPR2 [2], this compound displayed an inhibition at 0.5 µM of 62.8%, an inhibition at 1 µM of 80.4% and an inhibition at 5 µM of 90%.

Consider `CC(=O)c1ccc(S(=O)(=O)NC[C@@H](O)C[C@@H](Cc2ccccc2)C(=O)N[C@H]2c3ccccc3C[C@H]2O)cc1` [K], for which the “% Activity” value on VIPR2 [1] was 92.35%. At VIPR2 [2], this compound showed an inhibition at 0.5 µM of 58.3%, an inhibition at 1 µM of 78% and an inhibition at 5 µM of 88.7%.
